Test results: patent US20250282746A1, “HALOGEN-SUBSTITUTED ISOINDOLINE COMPOUND AND USE THEREOF” (CHENGDU FENDI PHARMACEUTICAL CO., LTD., priority 2022, published 2025)
pIC50: −log10 of the molar value. Like-named read-outs stand apart in the source and are kept apart here.

What was measured:
NCI-H929 cells = experiment: Antiproliferative activity against various tumor cells: NCI-H929; format: cell-based; conditions: Homo sapiens, read-out: Antiproliferative activity IC50 NCI-H929
Description: (§1) U937, NCI-H929, AML-2, and MOLM-13 cells in the logarithmic growth phase were diluted in media RPMI+10% FBS, RPMI+10% FBS, MEMα+20% FBS, RPMI+20% FBS, respectively, and plated at 4,000 cells/well in 96-well whole black plates (WHB) with 50 μL/well. After plating, the plates were incubated in an incubator at 5% CO2 and 37° C. for 24 h before the compounds were added. The compounds were prepared into a 10 mM stock solution in DMSO and diluted in a culture medium to the desired concentrations (a final DMSO concentration of 0.2%). […] The plates were incubated at 5% CO2 and 37° C. for 72 h. After the incubation was complete, the plates were equilibrated at room temperature for 30 min. CellTiter-Glo® Reagent (Promega G7573) was added at 100 μL/well. The plates were shaken for 12 min on a microplate shaker. The luminescence value was measured at room temperature by the GloMax navigator (Promega GM2010).

U937 cells = experiment: Antiproliferative activity against various tumor cells: U937; format: cell-based; conditions: Homo sapiens, read-out: Antiproliferative activity IC50 U937
Description: as §1

MOLM-13 cells = experiment: Antiproliferative activity against various tumor cells: MOLM-13; format: cell-based; conditions: Homo sapiens, read-out: Antiproliferative activity IC50 MOLM-13
Description: as §1

AML-2 cells = experiment: Antiproliferative activity against various tumor cells: AML-2; format: cell-based; conditions: 72 h, read-out: Antiproliferative activity IC50 AML-2
Description: as §1

GSPT1 protein = molecular target: T1, GSPT1 protein (Homo sapiens, UniProt P15170); experiment: Degradation of GSPT1 protein in NB-4 cells (Western blot); format: cell-based; conditions: for inhibition at 1 µM: read-out: GSPT1 degradation
T1 construct: The whole cell lysate was prepared using a RIPA lysis buffer; endogenous in cells; host or cells: NB-4 cells
T1 sequence (P15170 whole entry): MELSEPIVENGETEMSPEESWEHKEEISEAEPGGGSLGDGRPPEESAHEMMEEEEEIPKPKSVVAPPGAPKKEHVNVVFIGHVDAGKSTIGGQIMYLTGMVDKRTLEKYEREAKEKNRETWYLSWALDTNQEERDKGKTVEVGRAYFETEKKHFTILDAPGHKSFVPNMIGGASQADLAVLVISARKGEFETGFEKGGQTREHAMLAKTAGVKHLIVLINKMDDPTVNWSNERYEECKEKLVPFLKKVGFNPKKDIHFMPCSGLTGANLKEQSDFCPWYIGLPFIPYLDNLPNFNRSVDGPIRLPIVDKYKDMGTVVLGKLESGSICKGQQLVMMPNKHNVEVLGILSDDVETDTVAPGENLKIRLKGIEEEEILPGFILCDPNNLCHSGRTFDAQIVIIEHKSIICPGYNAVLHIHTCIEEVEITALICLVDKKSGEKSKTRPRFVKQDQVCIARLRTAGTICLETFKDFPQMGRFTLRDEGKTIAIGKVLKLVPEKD
How it was run: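 NB-4 cells treated with compounds at 1 μM for 6 h at 37 °C, 5% CO2, with DMSO control. RIPA whole-cell lysates, BCA-normalized, were run on 4-20% SDS-PAGE and immunoblotted for GSPT1 protein.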

IKZF1 = molecular target: T2, IKZF1 (Homo sapiens, UniProt Q13422); experiment: Degradation of IKZF1 protein in HL-60 cells (Western blot); format: cell-based; conditions: 4 h
T2 construct: The whole cell lysate was prepared using a RIPA lysis buffer; endogenous in cells; host or cells: HL-60 cells
T2 sequence (Q13422 whole entry): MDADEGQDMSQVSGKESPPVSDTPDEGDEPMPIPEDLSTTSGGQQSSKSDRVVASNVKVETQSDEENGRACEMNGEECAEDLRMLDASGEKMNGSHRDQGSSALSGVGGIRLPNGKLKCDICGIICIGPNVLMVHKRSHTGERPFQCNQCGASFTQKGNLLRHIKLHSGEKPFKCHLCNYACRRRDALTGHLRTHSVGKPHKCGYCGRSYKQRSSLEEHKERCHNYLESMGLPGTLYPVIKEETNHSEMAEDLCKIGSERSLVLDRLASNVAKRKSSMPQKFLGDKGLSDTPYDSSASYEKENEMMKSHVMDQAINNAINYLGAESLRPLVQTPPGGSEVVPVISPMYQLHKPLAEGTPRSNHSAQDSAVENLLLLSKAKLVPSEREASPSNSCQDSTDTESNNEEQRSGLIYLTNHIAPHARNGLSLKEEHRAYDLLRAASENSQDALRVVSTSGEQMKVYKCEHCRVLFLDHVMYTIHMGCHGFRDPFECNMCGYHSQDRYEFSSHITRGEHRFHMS
Description: (§2) […] of DMSO and the compounds were added, and the mixture was incubated in an incubator at 5% CO2 and 37° C. for 4 h. The cells were centrifuged, and the culture medium was discarded. PBS was added for washing and then discarded. The whole cell lysate was prepared using a RIPA lysis buffer containing a protease inhibitor cocktail and a phosphatase inhibitor, and incubated on ice for 30 min. The mixture was centrifuged, and the cell debris was discarded. The whole cell lysate supernatant was collected and transferred to a fresh EP tube. Samples were prepared using a loading buffer after a BCA protein assay. The samples were incubated in a metal bath at 100° C. for 10 min. The samples were electrophoretically separated from proteins on a 4-20% precast gel (SDS-PAGE gel), transferred to a PVDF membrane, blocked with 5% NFDM/TBST for 1 h at room temperature, co-incubated overnight at 4° C. with the primary antibody, and co-incubated for 2 h at room temperature with the secondary antibody on the next day. The signals were detected on the […]™ imaging system.

IKZF3 = molecular target: T3, IKZF3 (Homo sapiens, UniProt Q9UKT9); experiment: Degradation of IKZF3 protein in HL-60 cells (Western blot); format: cell-based; conditions: 4 h
T3 construct: The whole cell lysate was prepared using a RIPA lysis buffer; endogenous in cells; host or cells: HL-60 cells
T3 sequence (Q9UKT9 whole entry): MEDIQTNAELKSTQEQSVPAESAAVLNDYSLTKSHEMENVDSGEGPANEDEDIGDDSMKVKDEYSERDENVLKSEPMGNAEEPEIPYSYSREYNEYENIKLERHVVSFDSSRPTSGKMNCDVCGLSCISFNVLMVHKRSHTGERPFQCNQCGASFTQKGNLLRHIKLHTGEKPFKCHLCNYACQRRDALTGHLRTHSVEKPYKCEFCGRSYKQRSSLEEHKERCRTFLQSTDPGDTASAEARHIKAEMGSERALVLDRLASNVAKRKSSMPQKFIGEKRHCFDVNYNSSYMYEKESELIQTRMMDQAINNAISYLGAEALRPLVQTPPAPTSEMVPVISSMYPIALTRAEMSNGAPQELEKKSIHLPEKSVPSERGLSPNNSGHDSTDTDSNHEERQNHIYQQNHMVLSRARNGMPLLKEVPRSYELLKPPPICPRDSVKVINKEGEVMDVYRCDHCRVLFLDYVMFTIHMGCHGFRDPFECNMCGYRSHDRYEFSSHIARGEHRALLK
Description: as §2

CK1α = molecular target: T4, CK1α (Homo sapiens, UniProt P48729); experiment: Degradation of CK1α protein in HL-60 cells (Western blot); format: cell-based; conditions: 4 h
T4 construct: The whole cell lysate was prepared using a RIPA lysis buffer; endogenous in cells; host or cells: HL-60 cells
T4 sequence (P48729 whole entry): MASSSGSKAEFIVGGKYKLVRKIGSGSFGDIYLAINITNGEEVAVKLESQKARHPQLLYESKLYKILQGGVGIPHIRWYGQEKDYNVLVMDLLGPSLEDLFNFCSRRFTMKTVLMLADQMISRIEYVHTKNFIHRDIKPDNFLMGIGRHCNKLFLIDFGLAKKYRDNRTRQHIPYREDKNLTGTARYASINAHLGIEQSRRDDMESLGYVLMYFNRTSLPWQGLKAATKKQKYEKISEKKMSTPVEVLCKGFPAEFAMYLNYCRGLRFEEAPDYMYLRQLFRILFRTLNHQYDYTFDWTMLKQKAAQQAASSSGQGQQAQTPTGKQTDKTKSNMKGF
Description: as §2

c-Myc = molecular target: T5, c-Myc (Homo sapiens, UniProt P01106); experiment: Degradation of c-MYC protein in HL-60 cells (Western blot); format: cell-based; conditions: 4 h
T5 construct: The whole cell lysate was prepared using a RIPA lysis buffer; endogenous in cells; host or cells: HL-60 cells
T5 sequence (P01106 whole entry): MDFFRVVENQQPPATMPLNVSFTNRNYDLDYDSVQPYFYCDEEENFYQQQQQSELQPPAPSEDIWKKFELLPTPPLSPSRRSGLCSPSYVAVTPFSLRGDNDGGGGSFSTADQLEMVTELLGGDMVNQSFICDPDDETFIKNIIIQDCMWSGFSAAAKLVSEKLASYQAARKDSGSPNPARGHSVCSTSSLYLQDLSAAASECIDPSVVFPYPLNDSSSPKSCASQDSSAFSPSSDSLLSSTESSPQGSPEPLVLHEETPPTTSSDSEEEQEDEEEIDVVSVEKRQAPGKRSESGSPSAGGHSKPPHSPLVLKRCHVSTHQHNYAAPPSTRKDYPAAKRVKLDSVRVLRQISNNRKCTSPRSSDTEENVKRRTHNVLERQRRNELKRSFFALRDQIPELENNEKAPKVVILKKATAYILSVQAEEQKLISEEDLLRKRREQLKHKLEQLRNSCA
Description: as §2

MV-4-11-Luc xenograft = experiment: Efficacy in acute myeloid leukemia MV-4-11-luc xenograft mouse model; format: in vivo; conditions: 10 mg/kg orally twice daily, NSG mice
Description: In an in vivo efficacy study, female immunocompromised NSG mice aged 6 to 8 weeks were used and the experimental procedures started after the animals were acclimatized in the experimental environment for 7 days. The animals were housed in SPF animal rooms in individually ventilated cages (IVCs) each containing 6 mice. Human acute myeloid leukemia MV-4-11 cells expressing luciferase (MV-4-11-luc) were grafted into mice by tail vein injection (5×10^6 cells/mouse). Seven days after the cell grafting, the mice were subjected to imaging on the IVIS Lumina III small animal imaging system for grouping and administration, and tumor-bearing mice were randomized to the vehicle control group or treatment groups (6 mice/group). The compound (10 mg/kg, twice daily) was administered to the animals in each treatment group by oral gavage. The body weight was measured daily, while mean luminescence was measured after the start of treatment with the compounds or vehicle.
Indicators: The indicators were to investigate whether the tumor growth was inhibited or delayed or the tumor was cured. The tumor size was measured twice weekly using the IVIS Lumina III small animal imaging system. The tumor signals were determined by exposure photons per second. The anti-tumor efficacy of the compounds was evaluated by the tumor proliferation rate T/C (%). T/C %=TRTV/CRTV×100% (TRTV: the RTV of the treatment group; CRTV: the RTV of negative control group; RTV=Vt/V0, where V0 is the tumor signal measured at the time of grouping and administration (i.e., day 0), and Vt is the tumor signal at every measurement). According to the guidelines of the Center for Drug Evaluation, NMPA, a T/C (%) of >40% denotes the absence of efficacy, while a T/C of <40% with P<0.05 denotes the presence of efficacy.

SMILES: O=C1CCC(N2Cc3c(ccc(CNC(=O)c4ccc(Cl)cc4)c3F)C2=O)C(=O)N1 (stereo not shown) [FDAB-48]
- pIC50 (NCI-H929 cells; NCI-H929, 72 h): 8.00 to 9.00
- pIC50 (U937 cells; U-937, 72 h): 7.00 to 8.00
- pIC50 (MOLM-13 cells; MOLM-13, 72 h): 7.00 to 8.00
- pIC50 (AML-2 cells): 6.00 to 7.00
- inhibition at 1 µM (GSPT1 protein; NB-4, 6 h): > 80%
- degradation of GSPT1 protein (GSPT1 protein; co-incubated for 6 h with NB-4 cells): 88%
- IKZF1 degradation (IKZF1; 10 nM): B (B denotes a percentage of degradation less than 800% but not less than 500%)
- IKZF1 degradation (IKZF1; 100 nM): A (A denotes a percentage of GSPT1 protein degradation not less than 8000)
- IKZF1 degradation (IKZF1; 1000 nM): A (A denotes a percentage of GSPT1 protein degradation not less than 8000)
- IKZF3 degradation (IKZF3; 10 nM): C (C denotes a percentage of degradation less than 500% but not less than 250%)
- IKZF3 degradation (IKZF3; 100 nM): B (B denotes a percentage of degradation less than 800% but not less than 500%)
- IKZF3 degradation (IKZF3; 1000 nM): A (A denotes a percentage of GSPT1 protein degradation not less than 8000)
- CK1α degradation (CK1α; 10 nM): D (D denotes a percentage of degradation less than 25%)
- CK1α degradation (CK1α; 100 nM): D (D denotes a percentage of degradation less than 25%)
- CK1α degradation (CK1α; 1000 nM): D (D denotes a percentage of degradation less than 25%)
- c-Myc degradation (c-Myc; 10 nM): D (D denotes a percentage of degradation less than 25%)
- c-Myc degradation (c-Myc; 100 nM): D (D denotes a percentage of degradation less than 25%)
- c-Myc degradation (c-Myc; 1000 nM): C (C denotes a percentage of degradation less than 500% but not less than 250%)
- T/C (%) Day 3 (MV-4-11-Luc xenograft): 0.95%
- T/C (%) Day 7 (MV-4-11-Luc xenograft): 0.22%
- T/C (%) Day 10 (MV-4-11-Luc xenograft): 0.10%
- T/C (%) Day 14 (MV-4-11-Luc xenograft): 0.05%

SMILES: Cc1ccc(C(=O)NCc2ccc3c(c2F)CN(C2CCC(=O)NC2=O)C3=O)c(F)c1 (stereo not shown) [FDAB-121]
- pIC50 (NCI-H929 cells; NCI-H929 cells, 72 h): 8.00 to 9.00
- pIC50 (U937 cells; U-937, U937 cells, 72 h): 7.00 to 8.00
- pIC50 (MOLM-13 cells; MOLM-13 cells, 72 h): 7.00 to 8.00
- pIC50 (AML-2 cells; AML-2 cells): 7.00 to 8.00
- inhibition at 1 µM (GSPT1 protein; NB-4 cells, compound 1 μM, 6 h): > 80%
- IKZF1 degradation (IKZF1; 10 nM): B (B denotes a percentage of degradation less than 800% but not less than 500%)
- IKZF1 degradation (IKZF1; 100 nM): A (A denotes a percentage of GSPT1 protein degradation not less than 8000)
- IKZF1 degradation (IKZF1; 1000 nM): A (A denotes a percentage of GSPT1 protein degradation not less than 8000)
- IKZF3 degradation (IKZF3; 10 nM): D (D denotes a percentage of degradation less than 25%)
- IKZF3 degradation (IKZF3; 100 nM): B (B denotes a percentage of degradation less than 800% but not less than 500%)
- IKZF3 degradation (IKZF3; 1000 nM): B (B denotes a percentage of degradation less than 800% but not less than 500%)
- CK1α degradation (CK1α; 10 nM): D (D denotes a percentage of degradation less than 25%)
- CK1α degradation (CK1α; 100 nM): D (D denotes a percentage of degradation less than 25%)
- CK1α degradation (CK1α; 1000 nM): C (C denotes a percentage of degradation less than 500% but not less than 250%)
- c-Myc degradation (c-Myc; 10 nM): D (D denotes a percentage of degradation less than 25%)
- c-Myc degradation (c-Myc; 100 nM): D (D denotes a percentage of degradation less than 25%)
- c-Myc degradation (c-Myc; 1000 nM): D (D denotes a percentage of degradation less than 25%)
- T/C (%) Day 3 (MV-4-11-Luc xenograft): 0.32%
- T/C (%) Day 7 (MV-4-11-Luc xenograft): 0.06%
- T/C (%) Day 10 (MV-4-11-Luc xenograft): 0.02%
- T/C (%) Day 14 (MV-4-11-Luc xenograft): 0.00%
